The source of these data is US5852191A, “Rigidized monomethine cyanines” (Carnegie Mellon University, priority 1995, dated 1998).

Like-named read-outs stand apart in the source and are kept apart here.

Data set [1] is described as follows: Dimer formation of dye by UV spectrum on thin glass slide. The class given is physicochemical.
Data set [2] can be described thus: Literature spectral properties of prior art fluorescent dyes. The class given is physicochemical.
For data set [3] the following is noted: cited from earlier work.
For data set [4] the following is noted: cited from earlier work; for RI (relative intensity): 1.00 = intensity of the dye in methanol.
Data set [5] is described as follows: Relative fluorescence intensities of the compounds of Examples A and B in a variety of solvents (Table 4). Format: physicochemical. From the text: See M. T. Ramos et al., Heterocycles, Vol. 29, p. 165 (1989).
Data set [6] can be described thus: Absorption/emission spectra and molar extinction coefficients of the compounds of Examples A and B in solvents (Table 3). The class given is physicochemical. From the text:
(§1) The observed absorption maxima, molar extinction coefficients, emission maxima and qualitative solubility data for the boron-rigidized complexes of Examples A and B are provided in Table 3.

Data set [7] can be described thus: Qualitative solubility of the compounds of Examples A and B (Table 3). The class given is physicochemical. Particulars: applies to either dye compound.
Text: as §1

Data set [8] can be described thus: Resistance to photodegradation (500 watt mercury vapor lamp; optical density monitored). Format: physicochemical. The text has this: The resistance to photodegradation of the compounds of Examples A and B in methanol and dichloromethane was also investigated and was compared with photofading rates of certain Coumarin dyes. A degassed solution of each dye in a quartz cuvette was illuminated with a 500 watt mercury vapor lamp from a distance of 4 inches. The solution optical density at maximum wavelength was monitored as a function of time.

A short description of data set [9]: Absorptive and emissive wavelength maxima and fluorescence of the compounds of Examples C to I. The class given is physicochemical. Particulars: for Maximum absorptive wavelength / Maximum emissive wavelength: measured in methanol; for Fluorescence (in words): qualitative, methanol where stated.

Regarding `O=C(O)CC1=C2Sc3cc(S(=O)(=O)O)ccc3N2[B-](F)(F)[n+]2c1sc1cc(S(=O)(=O)O)ccc12`, in data set [1] (HMPA), the “Dimer by UV spectrum” value is on record as “absence of dimer”.

Regarding 7-amino-4-methylcoumarin acetate, in data set [2], the “Fluorescence capacity (extinction coefficient x quantum yield) relative to the present inventions' compounds” value is on record as “approximately one-quarter”.

As for `O=C(Cc1ccc2c(c1)N1C(=Cc3oc4ccc(CC(=O)ON5C(=O)CCC5=O)cc4[n+]3[B-]1(F)F)O2)ON1C(=O)CCC1=O` [Blue 1-OSu, disuccinimidyl benzoxazolylmethene borondifluoride complex], the “Dimer by UV spectrum” value in [1] (DMF reaction mixture) is recorded as “presence of dimer”.

`CC1=CC(C)=[N+]2C1=Cc1c(C)cc(C)n1[B-]2(F)F` [Bodipy, 3,3',5,5'-tetramethyl-2,2'-pyrromethene-1,1'-boron-difluoride]: in data set [3] (aqueous media), the Maximum absorptive wavelength was 500 nm and the Maximum emissive wavelength was 508 nm. In addition, the Emission maximum in data set [3] (solvent not stated) was 508 nm. Also, in data set [4] (Acetonitrile), the “RI (relative intensity)” value was 0.87, the Extinction coefficient is 86.7 cm⁻¹ mM⁻¹, the Max. absorption wavelength is 501 nm and the Max. emission wavelength is 508 nm. For the same molecule, in data set [4] (Dioxane), the “RI (relative intensity)” value is reported as 0.63, the Extinction coefficient was 80.0 cm⁻¹ mM⁻¹, the Max. absorption wavelength is 505 nm and the Max. emission wavelength is listed as 512 nm. Also, in data set [4] (Methanol), the “RI (relative intensity)” value is 1.00, the Extinction coefficient was 85.3 cm⁻¹ mM⁻¹, the Max. absorption wavelength is listed as 501 nm and the Max. emission wavelength is listed as 509 nm. For the same molecule, in data set [4] (Water), the “RI (relative intensity)” value was 0.48, the Max. absorption wavelength is listed as 500 nm and the Max. emission wavelength is on record as 508 nm.

For the molecule `CC1=CC(C)=[N+]2C1=Cc1c(C)c(S(=O)(=O)O)c(C)n1[B-]2(F)F` [Bodipy-sulfonate, 4-Sulfonato-3,3'5,5'-Tetramethyl-2,2'-Pyrromethene-1,1'-Borondifluoride Complex], in [4] (Acetonitrile), the “RI (relative intensity)” value is listed as 0.69, the Extinction coefficient is 58.9 cm⁻¹ mM⁻¹, the Max. absorption wavelength is on record as 504 nm and the Max. emission wavelength is on record as 514 nm. Also, in data set [4] (Dioxane), the “RI (relative intensity)” value was 0.64, the Extinction coefficient is 52.7 cm⁻¹ mM⁻¹, the Max. absorption wavelength is listed as 506 nm and the Max. emission wavelength is listed as 518 nm. In data set [4] (Methanol), the “RI (relative intensity)” value is 1.00, the Extinction coefficient was 57.7 cm⁻¹ mM⁻¹, the Max. absorption wavelength is recorded as 500 nm and the Max. emission wavelength is on record as 515 nm. Also, in data set [4] (Water), the “RI (relative intensity)” value is 0.67, the Extinction coefficient is 39.7 cm⁻¹ mM⁻¹, the Max. absorption wavelength is on record as 494 nm and the Max. emission wavelength was 509 nm.

With `F[B-]1(F)N2C(=Cc3sc4ccccc4[n+]31)Sc1ccccc12` [Example A, Bis-benzothiazolylmethene Borondifluoride], the Relative fluorescence intensity is 0.89 in data set [5] (Acetonitrile); 0.91 in data set [5] (Chloroform); 0.97 in [5] (Ethyl Acetate); 0.89 in [5] (Methanol); 0.81 in data set [5] (Toluene). The “Logarithm of the Extinction coefficient” value in data set [6] (Acetonitrile) is 4.97 M^-1 cm^-1; in [6] (Chloroform), 4.97 M^-1 cm^-1; in data set [6] (Ethyl Acetate), 4.98 M^-1 cm^-1; in data set [6] (Toluene), 4.95 M^-1 cm^-1. Moreover, the Max. absorption wavelength in [6] (Acetonitrile) is listed as 418 nm; in data set [6] (Chloroform) it was 420 nm; in data set [6] (Ethanol), 418 nm; in [6] (Ethyl Acetate), 418 nm; in [6] (Methanol), 418 nm; in data set [6] (Toluene), 420 nm. The Max. emission wavelength in data set [6] (Acetonitrile) amounted to 423 nm; in [6] (Chloroform) it was 425 nm; in [6] (Ethanol) it was 423 nm; in data set [6] (Ethyl Acetate) it was 423 nm; in data set [6] (Methanol), 422 nm; in [6] (Toluene), 427 nm. In [6] (FIG. 3 and FIG. 4), the “Shape of emission spectrum relative to absorption spectrum” value is recorded as “mirrors its absorption spectrum”. The Stokes shift in data set [6] (solvents of Table 3) is reported as 5-7 nm. In addition, the “Solubility data (qualitative)” value in [7] (Acetonitrile) is “sol”; in data set [7] (Chloroform) it was “sol”; in data set [7] (Ethanol), “sparingly”; in data set [7] (Ethyl Acetate), “sol”; in data set [7] (Methanol) it was “sparingly”; in data set [7] (Toluene), “sol”. Also, the “Red shift at the maximum wavelength” value in data set [8] (dichloromethane) was “approximately 12 nm”. Further, the “Resistance to photofading compared with the Coumarin dyes” value in [8] (dichloromethane) was “more resistant to photofading than the Coumarin dyes”. For the same molecule, the “Photofading rate compared with the corresponding Coumarin compound” value in data set [8] (methanol, 500 watt mercury vapor lamp) is on record as “faded somewhat faster”.

For `O=C(O)Cc1ccc2c(c1)N1C(=Cc3oc4ccc(CC(=O)O)cc4[n+]3[B-]1(F)F)O2` [Example C, Bis-carboxymethyl Benzoxazolylmethene Borondifluoride], in [9], the Maximum absorptive wavelength is listed as 362 nm, the Maximum emissive wavelength was found to be 386 nm and the “Fluorescence (in words)” value is reported as “highly fluorescent”.

In the case of `F[B-]1(F)N2C(=Cc3sc4ccccc4[n+]31)Oc1ccccc12` [Example D], in data set [9], the Maximum absorptive wavelength is listed as 388 nm, the Maximum emissive wavelength turned out to be 414 nm and the “Fluorescence (in words)” value was “highly fluorescent”.

As for `CC(=O)C1=C2Sc3ccccc3N2[B-](F)(F)[n+]2c1sc1ccccc12` [Example E], in data set [9], the Maximum absorptive wavelength is 416 nm and the “Fluorescence (in words)” value was “less fluorescent than the base benzothiazole chromophore”.

With `F[B-]1(F)N2C=CC=CC2=Cc2sc3ccccc3[n+]21` [Example F, Benzothiazolyl Pyridylmonomethine Borondifluoride], in data set [9], the Maximum absorptive wavelength is reported as 430 nm, the Maximum emissive wavelength came out at 476 nm and the “Fluorescence (in words)” value is “high fluorescence”.

As to `N#CC1=C2C=CC=CN2[B-](F)(F)[n+]2ccccc21` [Example G], in data set [9], the Maximum absorptive wavelength is 432 nm, the Maximum emissive wavelength came to 460 nm and the “Fluorescence (in words)” value was “very fluorescent”.

As to `F[B-]1(F)N2C(=Cc3ccc4ccccc4[n+]31)C=Cc1ccccc12` [Example H, Bis-Quinolinemethene Borondifluoride], in [9], the Maximum absorptive wavelength amounted to 512 nm, the Maximum emissive wavelength is given as 518 nm and the “Fluorescence (in words)” value is recorded as “intense green fluorescence”.

Take `F[B-]1(F)N2C(=Cc3ccc4ccccc4[n+]31)Sc1ccccc12` [Example I, 2(2'-Benzothiazolylmethene)Quinoline Borondifluoride]: in data set [9], the Maximum absorptive wavelength is reported as 480 nm, the Maximum emissive wavelength is 492 nm and the “Fluorescence (in words)” value is “green fluorescence”.
